# Test results reported in paper PMC7588843 (Bioactive Materials, 2020).
# Experiments:
# [1] = tested on: P. falciparum D10 (CQ-sensitive) strain; experiment: P. falciparum drug susceptibility assay; format: cell-based; details: for IC50: Plasmodium falciparum, D10, 72 h, read-out: P. falciparum IC50 D10; for SID10: IC50(NHDF)/IC50(D10)
# [2] = tested on: P. falciparum W2 (CQ-resistant) strain; experiment: P. falciparum drug susceptibility assay; format: cell-based; details: for IC50: Plasmodium falciparum, W2, 72 h, read-out: P. falciparum IC50 W2; for SIW2: IC50(NHDF)/IC50(W2); for RI (resistance index): ratio of IC50 against W2 and D10 strains
# human erythrocytes [3] = experiment: Hemolytic activity in the presence of 10 μM FP; format: cell-based; details: for Hemolysis of human erythrocytes in the presence of FP: 50 and 100 μM, 2 h, 37 °C
# Cytotoxic activity test = format: cell-based, human; details: human, NHDF cells
# human erythrocytes [4] = experiment: Hemolytic activity without FP; format: cell-based; details: 50 and 100 μM, 2 h, 37 °C
# [5] = In vivo pharmacokinetic evaluation in mice
# NHDF cells = experiment: Cytotoxic activity test; format: cell-based, human; details: 24 and 48 h, MTT, up to twice the IC50 for P. falciparum
# [6] = male, CD-1, mouse, plasma, po, 0.02 mg/kg
SMILES,IC50 [1] [µg/mL],IC50 [2] [µg/mL],SID10 [1],SIW2 [2],RI (resistance index) [2],Hemolysis of human erythrocytes in the presence of FP (human erythrocytes [3]),IC50 (Cytotoxic activity test) [µg/mL],Hemolysis of human erythrocytes without FP (human erythrocytes [4]),further results
"Cn1cccc2c3cccnc3nc1-2 [Compound 11, 1-methyl-1H-1,8-diazacarbazole]",> 5,> 5,,,,,,,
"Cc1ccn(C)c2nc3ccccc3c1-2 [Compound 6, 1,4-dimethyl-1H-1-azacarbazole]",4.42 ± 0.458,4.18 ± 1.04,2.6,2.8,0.9,drastically increased the percentage of hemolysis,11.8 ± 0.144,None of the examined agents caused significant lysis,"Hemolysis with FP compared with CQ-FP, 50 μM (human erythrocytes [3]): less hemolytic than CQ-FP complexes"
"Cc1ccc2[nH]c3ncccc3c2c1 [Compound 5, 6-methyl-9H-1-azacarbazole]",> 5,> 5,,,,,,,
"c1cnc2c(c1)[nH]c1cccnc12 [Compound 10, 9H-4,5-diazacarbazole]",> 5,> 5,,,,,,,
"c1ccc2c(c1)[nH]c1ccncc12 [Compound 3, 9H-3-azacarbazole]",1.95 ± 0.263,2.22 ± 0.752,16.4,14.4,1.1,drastically increased the percentage of hemolysis,32 ± 1.43,None of the examined agents caused significant lysis,"AUC(0-t) [5, 6]: 1 ng·h/mL; CL/F [5, 6]: 194 mL/min/kg; Cmax [5, 6]: 4.67 ng/mL; MRT [5, 6]: 1.28 h; Vd/F [5, 6]: 19.7 L/kg; k el [5, 6]: 0.000165 s⁻¹; Tmax ([5]; male, CD-1, mouse, plasma, po, 0.02 mg/kg, tmax, mice, i.g., 0.02 mg/kg in 3-NE): ≤ 5 min; time plasma concentrations detectable after administration ([5]; mice, i.g., 0.02 mg/kg in 3-NE): at least 8 h; t0.5 ([5]; mice, i.g., 0.02 mg/kg in 3-NE, plasma, 0.02 mg/kg): 70.33 min; NHDF cell viability (NHDF cells): negligible effect on cell viability"
"Cc1cccc2c1[nH]c1ncccc12 [Compound 4, 8-methyl-9H-1-azacarbazole]",> 5,> 5,,,,,,,
"c1ccc2c(c1)[nH]c1cnccc12 [Compound 2, 9H-2-azacarbazole]",3.33 ± 0.742,3.67 ± 0.708,12.0,10.9,1.1,drastically increased the percentage of hemolysis,40 ± 1.11,None of the examined agents caused significant lysis,
"c1ccc2c(c1)[nH]c1ncccc12 [Compound 1, 9H-1-azacarbazole]",> 5,> 5,,,,,,,
"Cn1cccc2nc3cccnc3c1-2 [Compound 12, 4-methyl-4H-4,5-diazacarbazole]",3.16 ± 0.621,3.99 ± 0.269,13.5,10.7,1.3,,42.8 ± 3.31,None of the examined agents caused significant lysis,"Hemolysis with FP compared with CQ-FP, 50 μM (human erythrocytes [3]): less hemolytic than CQ-FP complexes; Hemolysis with FP compared with CQ-FP, 100 μM (human erythrocytes [3]; 100 μM): less hemolytic than CQ-FP complexes"
"c1cnc2[nH]c3ncccc3c2c1 [Compound 7, 9H-1,8-diazacarbazole]",> 5,> 5,,,,,,,
"CCN(CC)CCCC(C)Nc1ccnc2cc(Cl)ccc12 (stereo not shown) [CQ, chloroquine diphosphate, reference compound]",0.0184 ± 0.008,0.262 ± 0.102,,80.5,,drastically increased the percentage of hemolysis,,,
"c1cc2c(cn1)[nH]c1cnccc12 [Compound 8, 9H-2,7-diazacarbazole]",> 5,> 5,,,,,,,
"c1cnc2c(c1)[nH]c1ncccc12 [Compound 9, 9H-1,5-diazacarbazole]",> 5,> 5,,,,,,,
